Test results as given in ChEMBL document CHEMBL3044960, “Evaluation of fungicide applications to sweet orange at different flowering stages for control of postbloom fruit drop caused by Colletotrichum acutatum” (2008).
Active and inactive are the calls of the source. The rule behind the calls is not given here.

Assays:
[1] = test system: Colletotrichum acutatum; assay: Fungicidal activity against Colletotrichum acutatum infested Citrus sinensis assessed as reduction in symptomatic flowers at 0.056 g/l applied through airblast sprayer during open flower stage measured after 7 days; assay type: functional, organism-based
[2] = test system: Colletotrichum acutatum; assay: Fungicidal activity against Colletotrichum acutatum infested Citrus sinensis assessed as reduction in number of symptomatic flowers at 0.056 g/l applied through airblast sprayer during green bud until open flower stages measured after 7 days; assay type: functional, organism-based
[3] = test system: Colletotrichum acutatum; assay: Fungicidal activity against Colletotrichum acutatum infested Citrus sinensis assessed as total fruit weight per plant at 0.056 g/l applied through airblast sprayer during green bud until open flower stages measured after 70 days (Rvb =65.90 kg); assay type: functional
[4] = test system: Colletotrichum acutatum; assay: Fungicidal activity against Colletotrichum acutatum infested Citrus sinensis assessed as total fruit weight per plant at 0.056 g/l applied through airblast sprayer during green bud and hollow ball flower stages measured after 70 days (Rvb =49.88 kg); assay type: functional
[5] = test system: Colletotrichum acutatum; assay: Fungicidal activity against Colletotrichum acutatum infested Citrus sinensis assessed as total fruit weight per plant at 0.056 g/l applied through airblast sprayer during open flower stage measured after 70 days (Rvb =49.88 kg); assay type: functional
[6] = test system: Colletotrichum acutatum; assay: Fungicidal activity against Colletotrichum acutatum infested Citrus sinensis assessed as increase in fruit set at 0.056 g/l applied through airblast sprayer during green bud until open flower stages measured after 70 days; assay type: functional, organism-based
[7] = test system: Colletotrichum acutatum; assay: Fungicidal activity against Colletotrichum acutatum infested Citrus sinensis assessed as reduction in number of symptomatic flowers at 0.056 g/l applied through airblast sprayer during green bud, white bud and hollow ball flower stages measured after 7 days; assay type: functional, organism-based
[8] = test system: Colletotrichum acutatum; assay: Fungicidal activity against Colletotrichum acutatum infested Citrus sinensis assessed as reduction in symptomatic flowers at 0.056 g/l applied through airblast sprayer during white bud and hollow ball flower stages measured after 7 days; assay type: functional, organism-based
[9] = test system: Colletotrichum acutatum; assay: Fungicidal activity against Colletotrichum acutatum infested Citrus sinensis assessed as reduction in symptomatic flowers at 0.056 g/l applied through airblast sprayer during green bud and hollow ball flower stages measured after 7 days; assay type: functional, organism-based
[10] = test system: Colletotrichum acutatum; assay: Fungicidal activity against Colletotrichum acutatum infested Citrus sinensis assessed as total fruit weight per plant at 0.056 g/l applied through airblast sprayer during green bud, white bud and hollow ball flower stages measured after 70 days (Rvb =65.90 kg); assay type: functional
[11] = test system: Colletotrichum acutatum; assay: Fungicidal activity against Colletotrichum acutatum infested Citrus sinensis assessed as increase in fruit set at 0.056 g/l applied through airblast sprayer during green bud and white bud flower stages measured after 70 days; assay type: functional, organism-based
[12] = test system: Colletotrichum acutatum; assay: Fungicidal activity against Colletotrichum acutatum infested Citrus sinensis assessed as reduction in symptomatic flowers at 0.056 g/l applied through airblast sprayer during hollow ball flower stage measured after 7 days; assay type: functional, organism-based
[13] = test system: Colletotrichum acutatum; assay: Fungicidal activity against Colletotrichum acutatum infested Citrus sinensis assessed as total fruit weight per plant at 0.056 g/l applied through airblast sprayer during white bud and hollow ball flower stages measured after 70 days (Rvb =49.88 kg)s; assay type: functional
[14] = test system: Colletotrichum acutatum; assay: Fungicidal activity against Colletotrichum acutatum infested Citrus sinensis assessed as total fruit weight per plant at 0.056 g/l applied through airblast sprayer during green bud flower stage measured after 70 days (Rvb =65.90 kg); assay type: functional
[15] = test system: Colletotrichum acutatum; assay: Fungicidal activity against Colletotrichum acutatum infested Citrus sinensis assessed as increase in fruit set at 0.056 g/l applied through airblast sprayer during green bud flower stage measured after 70 days; assay type: functional, organism-based
[16] = test system: Colletotrichum acutatum; assay: Fungicidal activity against Colletotrichum acutatum infested Citrus sinensis assessed as total fruit weight per plant at 0.056 g/l applied through airblast sprayer during green bud and white bud flower stages measured after 70 days (Rvb =65.90 kg); assay type: functional
[17] = test system: Colletotrichum acutatum; assay: Fungicidal activity against Colletotrichum acutatum infested Citrus sinensis assessed as total fruit weight per plant at 0.056 g/l applied through airblast sprayer during hollow ball flower stage measured after 70 days (Rvb =49.88 kg); assay type: functional
[18] = test system: Colletotrichum acutatum; assay: Fungicidal activity against Colletotrichum acutatum infested Citrus sinensis assessed as increase in fruit set at 0.056 g/l applied through airblast sprayer during open flower stage measured after 70 days; assay type: functional, organism-based
[19] = test system: Colletotrichum acutatum; assay: Fungicidal activity against Colletotrichum acutatum infested Citrus sinensis assessed as increase in fruit set at 0.056 g/l applied through airblast sprayer during green bud, white bud and hollow ball flower stages measured after 70 days; assay type: functional, organism-based
[20] = test system: Colletotrichum acutatum; assay: Fungicidal activity against Colletotrichum acutatum infested Citrus sinensis assessed as increase in fruit production per tree at 1.25 g/l applied through airblast sprayer during green bud to white ball flower stages measured after 70 days; assay type: functional, organism-based
[21] = test system: Colletotrichum acutatum; assay: Fungicidal activity against Colletotrichum acutatum infested Citrus sinensis assessed as increase in fruit set percentage at 1 g/l applied through airblast sprayer during green bud to white ball flower stages measured after 70 days; assay type: functional, organism-based
[22] = test system: Colletotrichum acutatum; assay: Fungicidal activity against Colletotrichum acutatum infested Citrus sinensis assessed as total fruit weight per plant at 1.25 g/l applied through airblast sprayer during green bud, white bud and hollow ball flower stages measured after 70 days (Rvb =65.90 kg); assay type: functional
[23] = test system: Colletotrichum acutatum; assay: Fungicidal activity against Colletotrichum acutatum infested Citrus sinensis assessed as increase in fruit set at 1.25 g/l applied through airblast sprayer during open flower stage measured after 70 days; assay type: functional, organism-based
[24] = test system: Colletotrichum acutatum; assay: Fungicidal activity against Colletotrichum acutatum infested Citrus sinensis assessed as reduction in symptomatic flowers at 1.25 g/l applied through airblast sprayer during open flower stage measured after 7 days; assay type: functional, organism-based
[25] = test system: Colletotrichum acutatum; assay: Fungicidal activity against Colletotrichum acutatum infested Citrus sinensis assessed as total fruit weight per plant at 1.25 g/l applied through airblast sprayer during green bud and hollow ball flower stages measured after 70 days (Rvb =49.88 kg); assay type: functional
[26] = test system: Colletotrichum acutatum; assay: Fungicidal activity against Colletotrichum acutatum infested Citrus sinensis assessed as total fruit weight per plant at 1.25 g/l applied through airblast sprayer during green bud and white bud flower stages measured after 70 days (Rvb =65.90 kg); assay type: functional
[27] = test system: Colletotrichum acutatum; assay: Fungicidal activity against Colletotrichum acutatum infested Citrus sinensis assessed as total fruit weight per plant at 1.25 g/l applied through airblast sprayer during green bud until open flower stages measured after 70 days (Rvb =65.90 kg); assay type: functional
[28] = test system: Colletotrichum acutatum; assay: Fungicidal activity against Colletotrichum acutatum infested Citrus sinensis assessed as reduction in persistant calyces at 1 g/l applied through airblast sprayer during green bud to white ball flower stages measured after 7 days; assay type: functional, organism-based
[29] = test system: Colletotrichum acutatum; assay: Fungicidal activity against Colletotrichum acutatum infested Citrus sinensis assessed as reduction in symptomatic flowers at 1.25 g/l applied through airblast sprayer during hollow ball flower stage measured after 7 days; assay type: functional, organism-based
[30] = test system: Colletotrichum acutatum; assay: Fungicidal activity against Colletotrichum acutatum infested Citrus sinensis assessed as reduction in symptomatic flowers at 1.25 g/l applied through airblast sprayer during white bud and hollow ball flower stages measured after 7 days; assay type: functional, organism-based
[31] = test system: Colletotrichum acutatum; assay: Fungicidal activity against Colletotrichum acutatum infested Citrus sinensis assessed as increase in fruit set at 1.25 g/l applied through airblast sprayer during green bud, white bud and hollow ball flower stages measured after 70 days; assay type: functional, organism-based
[32] = test system: Colletotrichum acutatum; assay: Fungicidal activity against Colletotrichum acutatum infested Citrus sinensis assessed as total fruit weight per plant at 1.25 g/l applied through airblast sprayer during hollow ball flower stage measured after 70 days (Rvb =49.88 kg); assay type: functional
[33] = test system: Colletotrichum acutatum; assay: Fungicidal activity against Colletotrichum acutatum infested Citrus sinensis assessed as total fruit weight per plant at 1.25 g/l applied through airblast sprayer during open flower stage measured after 70 days (Rvb =49.88 kg); assay type: functional
[34] = test system: Colletotrichum acutatum; assay: Fungicidal activity against Colletotrichum acutatum infested Citrus sinensis assessed as increase in fruit production per tree at 1 g/l applied through airblast sprayer during green bud to white ball flower stages measured after 70 days; assay type: functional, organism-based
[35] = test system: Colletotrichum acutatum; assay: Fungicidal activity against Colletotrichum acutatum infested Citrus sinensis assessed as reduction in persistant calyces at 1.25 g/l applied through airblast sprayer during green bud to white ball flower stages measured after 7 days; assay type: functional, organism-based
[36] = test system: Colletotrichum acutatum; assay: Fungicidal activity against Colletotrichum acutatum infested Citrus sinensis assessed as reduction in number of symptomatic flowers at 1.25 g/l applied through airblast sprayer during green bud, white bud and hollow ball flower stages measured after 7 days; assay type: functional, organism-based
[37] = test system: Colletotrichum acutatum; assay: Fungicidal activity against Colletotrichum acutatum infested Citrus sinensis assessed as increase in fruit set percentage at 1.25 g/l applied through airblast sprayer during green bud to white ball flower stages measured after 70 days; assay type: functional, organism-based
[38] = test system: Colletotrichum acutatum; assay: Fungicidal activity against Colletotrichum acutatum infested Citrus sinensis assessed as reduction in symptomatic flowers at 1.25 g/l applied through airblast sprayer during green bud and hollow ball flower stages measured after 7 days; assay type: functional, organism-based
[39] = test system: Colletotrichum acutatum; assay: Fungicidal activity against Colletotrichum acutatum infested Citrus sinensis assessed as total fruit weight per plant at 1.25 g/l applied through airblast sprayer during green bud flower stage measured after 70 days (Rvb =65.90 kg); assay type: functional
[40] = test system: Colletotrichum acutatum; assay: Fungicidal activity against Colletotrichum acutatum infested Citrus sinensis assessed as total fruit weight per plant at 1.25 g/l applied through airblast sprayer during white bud and hollow ball flower stages measured after 70 days (Rvb =49.88 kg); assay type: functional
[41] = test system: Colletotrichum acutatum; assay: Fungicidal activity against Colletotrichum acutatum infested Citrus sinensis assessed as increase in fruit set at 1.25 g/l applied through airblast sprayer during white bud and hollow ball flower stages measured after 70 days relative to control; assay type: functional, organism-based

## CC1COC(Cn2cncn2)(c2ccc(Oc3ccc(Cl)cc3)cc2Cl)O1 (stereo unspecified) [DIFENOCONAZOLE]
[1]
  Activity: inactive
[2]
  Activity: Active
[3]
  Activity: 47.2 kg
[4]
  Activity: 53.5 kg
[5]
  Activity: 38 kg
[6]
  Activity: inactive
[7]
  Activity: Active
[8]
  Activity: Active
[9]
  Activity: Active
[10]
  Activity: 53.9 kg
[11]
  Activity: inactive
[12]
  Activity: inactive
[13]
  Activity: 32.7 kg
[14]
  Activity: 59.2 kg
[15]
  Activity: inactive
[16]
  Activity: 38.7 kg
[17]
  Activity: 71.4 kg
[18]
  Activity: inactive
[19]
  Activity: inactive

## O=C1c2ccccc2C(=O)N1SC(Cl)(Cl)Cl [FOLPET]
[20]
  Activity: Active
[21]
  Activity: Active
[22]
  Activity: 87.7 kg
[23]
  Activity: inactive
[24]
  Activity: inactive
[25]
  Activity: 46 kg
[26]
  Activity: 53.5 kg
[27]
  Activity: 86.9 kg
[28]
  Activity: Active
[29]
  Activity: Active
[30]
  Activity: Active
[31]
  Activity: Active
[32]
  Activity: 48.2 kg
[33]
  Activity: 61.2 kg
[34]
  Activity: Active
[35]
  Activity: Active
[36]
  Activity: Active
[37]
  Activity: Active
[38]
  Activity: Active
[39]
  Activity: 48.7 kg
[40]
  Activity: 59.6 kg
[41]
  Activity: Active
